In patent publication US20180230127A1 (PFIZER INC., priority 2015, published 2018):
pIC50: −log10 of the molar value. Structures can show the parent of a compound that is named as a salt.

molecular target: T1, human IRAK4 kinase domain (aa 154-460) (Homo sapiens, UniProt Q9NWZ3); test: IRAK4 Enzymatic DELFIA Assay; type: biochemical; details: 0.6 mM ATP (KM); 114 pM IRAK4 kinase domain; 200 nM substrate; 5% DMSO
T1 construct: human IRAK4 kinase domain (aa 154-460; GenBank ID AF445802)
T1 sequence (Q9NWZ3 154-460): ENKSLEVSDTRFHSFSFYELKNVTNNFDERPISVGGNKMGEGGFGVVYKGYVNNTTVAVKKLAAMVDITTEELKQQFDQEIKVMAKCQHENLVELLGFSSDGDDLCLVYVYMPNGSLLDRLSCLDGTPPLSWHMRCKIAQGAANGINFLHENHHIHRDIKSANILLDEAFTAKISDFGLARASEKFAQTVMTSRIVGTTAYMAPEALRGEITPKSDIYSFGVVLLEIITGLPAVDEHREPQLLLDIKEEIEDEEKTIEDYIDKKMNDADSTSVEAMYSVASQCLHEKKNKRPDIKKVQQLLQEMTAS
Procedure: IRAK4 Enzymatic DELFIA Assay.
This is an in vitro assay to measure IRAK4 enzymatic activity utilizing the DELFIA (Dissociation-Enhanced Lanthanide Fluorescent Immunoassay, Perkin-Elmer) platform, with the human IRAK4 kinase domain (aa 154-460) construct to characterize IRAK4 inhibitor and control compounds at 0.6 mM ATP (KM). The final amount of enzyme in the assay is 114 pM IRAK4 kinase domain, final concentration of substrate is 200 nM, and final concentration of DMSO is 5%.
The test compound was solubilized in DMSO to a stock concentration of 30 mM. The dose response plates were prepared with a 2 mM primary compound concentration, and then diluted in DMSO in a four-fold series for a total of 10 data points. Compounds were prepared as a 20-fold multiple of the final in-assay concentration
To begin the assay, 45 μL of reaction mixture containing 20 mM HEPES pH=7.5, 5 mM MgCl2, 0.0025% Brij-35, […], 228 pM phosphorylated recombinant human IRAK4 kinase domain (aa 154-460; GenBank ID AF445802) were aliquoted into Ultra-Clear Polypropylene, 96-well, U-Bottom Plates (Corning Life Sciences). 5 μL of test compound from the dose-response plate was added to the reaction mixture and incubated for 15 minutes at room temperature. Then 50 μL of 20 mM HEPES pH=7.5, 5 mM MgCl2, 0.0025% Brij-35, 600 μM ATP, and 400 nM ERM-biotinylated peptide (AGAGRDKYKTLRQIR) were added to start the reaction. The reaction was incubated for 90 minutes at room temperature and stopped by the addition of 25 μL 0.5M EDTA.
100 μL of the reaction mixture was transferred to a streptavidin coated detection plate (EvenCoat Streptavidin Coated Plates, 96-Well, R&D Systems) and incubated for 30 minutes at room temperature. The plates were washed 4 times with 100 μL per well of PBS containing 0.05% Tween-20. Plates were then incubated with 50 μL per well of antibody cocktail of Anti-pERM antibody (Cell Signaling Technology) diluted 1:5000, plus Anti-Rabbit IgG EuN1 at 0.242 μg/ml (Perkin-Elmer Life Sciences) in a solution of 10 mM MOPS pH=7.5, 150 mM NaCl, 0.05% Tween-20, 0.02% NaN3, 1% BSA, 0.1% Gelatin for 45 minutes. The plates were washed 4× with 100 μL per well of PBS containing 0.05% Tween-20. Then 100 μL per well of DELFIA Enhancement Solution were added to the plate and then read on an EnVision Model 2103 using a 340 nm excitation wavelength and a 665 nm emission detection.

pIC50	Compound
7.89	CC(C)Oc1cc2c(O[C@@H]3CCCN(C(=O)CO)C3)ccnc2cc1C(N)=O [Example 4, 4-{[(3R)-1-(hydroxyacetyl)piperidin-3-yl]oxy}-6-(propan-2-yloxy)quinoline-7-carboxamide formate]
6.05	CC(O)CN1CCC(Oc2nccc3cc(C(N)=O)c(OC(C)C)cc23)CC1 (centres unmarked) [Example 41, 1-{f[1-(2-hydroxypropyl)piperidin-4-yl]oxy}-7-(propan-2-yloxy)isoquinoline-6-carboxamide]
6.40	CC(=O)N1CCCC(Oc2ccnc3cc(C(N)=O)c(OC(C)C)cc23)C1 (centres unmarked) [Example 43, 4-[(1-acetylpiperidin-3-yl)oxy]-6-(propan-2-yloxy)quinoline-7-carboxamide]
5.64	CC(C)COc1cc2c(O[C@@H]3CCCNC3)ccnc2cc1C(N)=O [Example 76, 6-(2-methylpropoxy)-4-[(3R)-piperidin-3-yloxy]quinoline-7-carboxamide]
5.55	CC(C)Oc1cc2c(O[C@H]3CNCC[C@@H]3C)ccnc2cc1C(N)=O [Example 74, 4-{[(3R,4S)-4-methylpiperidin-3-yl]oxy}-6-(propan-2-yloxy)quinoline-7-carboxamide]
5.92	CC(C)Oc1cc2c(OC3CCCN(C)C3)ccnc2cc1C(N)=O (centres unmarked) [Example 71, 4-[(1-methylpiperidin-3-yl)oxyl]-6-(propan-2-yloxy)quinoline-7-carboxamide]
6.79	CC(C)Oc1cc2c(O[C@@H]3CCCN(C(=O)CC#N)C3)ncc(C#N)c2cc1C(N)=O [Example 38, 4-cyano-1-{[(3R)-1-(cyanoacetyl)piperidin-3-yl]oxy}-7-(propan-2-yloxy)isoquinoline-6-carboxamide]
6.95	CC(C)Oc1cc2c(O[C@H]3CCN(C(=O)CC#N)[C@@H]3C)ccnc2cc1C(N)=O [Example 17, 4-{[(2R,3S)-1-(cyanoacetyl)-2-methylpyrrolidin-3-yl]oxy}-6-(propan-2-yloxy)quinoline-7-carboxamide formate]
5.90	CC(C)Oc1cc2c(O[C@H]3CNCC[C@@H]3C)nccc2cc1C(N)=O [Example 70, 1-{[(3R,4S)-4-methylpiperidin-3-yl]oxy}-7-(propan-2-yloxy)isoquinoline-6-carboxamide]
6.02	CC(C)Oc1cc2c(O[C@H]3CCNC3)ccnc2cc1C(N)=O [Example 26, 6-(propan-2-yloxy)-4-[(3S)-pyrrolidin-3-yloxy]quinoline-7-carboxamide formate]
6.21	CC(C)Oc1cc2c(OC3CCNC3)ccnc2cc1C(N)=O (centres unmarked) [Example 24, 6-(propan-2-yloxy)-4-(pyrrolidin-3-yloxy)quinoline-7-carboxamide]
6.22	CC(C)Oc1cc2c(OC3CCNC3=O)nccc2cc1C(N)=O (centres unmarked) [Example 21, 1-[(2-oxopyrrolidin-3-yl)oxy]-7-(propan-2-yloxy)isoquinoline-6-carboxamide]
6.46	CC(C)Oc1cc2c(O[C@@H]3CCCN(C(=O)CN)C3)ccnc2cc1C(N)=O [Example 6, 4-{[(3R)-1-glycylpiperidin-3-yl]oxy}-6-(propan-2-yloxy)quinoline-7-carboxamide formate]

Compound	pIC50
N#CCC(=O)N1CCC[C@@H](Oc2ccnc3cc(C(N)=O)c(OC4CCC4)cc23)C1 [Example 33, (R)-4-((1-(2-cyanoacetyl)piperidin-3-yl)oxy)-6-cyclobutoxyquinoline-7-carboxamide]	6.57
